From patent publication US5447944A, “Carbamoyl-2-pyrrolidinone compounds” (Taiho Pharmaceutical Company, Limited, priority 1988, dated 1995)
Like-named read-outs stand apart in the source and are kept apart here.

Key:
[1] = Antianoxic activity test (Test Example 2): effect on the survival time under low-oxygen load at atmospheric pressure; assay type: in vivo, mice (ddY, five-week-old males); details: read-out: Antianoxia activity [increase ratio (%) of the survival time]
Excerpt: Antianoxic activity test (effect on the survival time under low-oxygen load at atmospheric pressure)
Groups of 10 mice (ddY, five-week-old males) were used for the experiment with reference to Japan Journal of Pharmacology, 81, 421~429 (1983), same, 86, 323~328 (1985) and same, 89, 355~363 (1987). The test compound was orally given to the mouse as dissolved or suspended in 0.5% solution of sodium carboxymethyl cellulose, the mouse was placed into a transparent plastics container (13×13×16 cm) having a vent, and a gas mixture of 96% nitrogen and 4% oxygen was passed through the container at a rate of 5 liters/min.

[2] = Reversal activity of amnesia (Test Example 1): scopolamine-induced amnesia, step-through passive avoidance, antiamnesia effect; assay type: in vivo, rats (Wistar, males); details: read-out: Antiamnesia effect [increase ratio (%) of the step-through latency]; for change in vivo at 10 mg/kg: 10 mg/kg oral
Description: Reversal activity of amnesia
Groups of 6 to 16 rats (Wistar, males, weighing 170 to 240 g) were used for the experiment.
Scopolamine was used as dissolved in physiological saline, and the test compound as dissolved or suspended in 0.5% solution of sodium carboxymethyl cellulose.
Scopolamine was subcutaneously given at a dose of 0.5 mg/kg 30 minutes before aquisition trials. The test compound was orally given immediately after the aquisition trials.
The rat was subjected to habituation trials about 1 hour before aquisition trials. The habituation was accomplished by placing the rat into the light compartment, opening the door 5 seconds thereafter, closing the door when the four legs completely entered the dark compartment, leaving the rat in the dark compartment for 10 seconds and thereafter taking out the rat. The acquisition trial was accomplished in the same manner as the habituation 1 hour thereafter except that simultaneously when the door was closed upon the movement of the rat into the dark compartment, an unescapable foot shock of 4.5 mA was given to the rat by the floor grit for 1 second.
A retention test was conducted 24 hours after the aquisition trials to measure the step-through latency during which the rat placed into the light compartment remained therein before moving into the dark compartment, i.e., the duration of a passive avoidance reaction.

[3] = Acute toxicity test (Test Example 3); details: mouse, in vivo
Description: Mice (ddY, five-week-old males) were used in groups of 4 to 5 mice each. The test compound was dissolved or suspended in 0.5% solution of sodium carboxymethyl cellulose and administered orally. […] Many of the test compounds produced symptoms of sedation or mascular relaxation for 30 minutes to 6 hours, followed by gradual recovery. The original state was restored two days later.

[4] = 30 mg/kg oral, mouse, 96% nitrogen and 4% oxygen, vs control group
[5] = 100 mg/kg oral, mouse, 96% nitrogen and 4% oxygen, vs control group
[6] = 300 mg/kg oral, mouse, 96% nitrogen and 4% oxygen, vs control group
[7] = rat, retention test 24 hours after acquisition, scopolamine 0.5 mg/kg s.c., vs control group
[8] = 30 mg/kg oral, rat, retention test 24 hours after acquisition, scopolamine 0.5 mg/kg s.c., vs control group
[9] = 100 mg/kg oral, rat, retention test 24 hours after acquisition, scopolamine 0.5 mg/kg s.c., vs control group
[10] = 300 mg/kg oral, rat, retention test 24 hours after acquisition, scopolamine 0.5 mg/kg s.c., vs control group

SMILES | ILS at 30 mg/kg ([1]; Mus musculus, po) [%] | ILS at 100 mg/kg ([1]; Mus musculus, po) [%] | ILS at 300 mg/kg ([1]; Mus musculus, po) [%] | change in vivo at 30 mg/kg ([2]; Rattus norvegicus, po, 24 h) [%] | change in vivo at 100 mg/kg ([2]; Rattus norvegicus, po, 24 h) [%] | change in vivo at 300 mg/kg ([2]; Rattus norvegicus, po, 24 h) [%] | ILS at 30 mg/kg [1, 4] [%] | ILS at 100 mg/kg [1, 5] [%] | ILS at 300 mg/kg [1, 6] [%] | LD50 at 72 h ([3]; po) [mg/kg] | change in vivo at 10 mg/kg [2, 7] [%] | change in vivo at 30 mg/kg [2, 8] [%] | change in vivo at 100 mg/kg [2, 9] [%] | change in vivo at 300 mg/kg [2, 10] [%] | LD50 at 72 h ([3]; oral, observed for 3 days) [mg/kg]
COc1ccc(C(=O)N2CCCC2=O)cc1 [Aniracetam, reference compound] | 19 | 26 | 23 | 230 | 288 | 42 | – | – | – | – | – | – | – | – | –
O=C1CCCN1C(=O)Nc1ccccc1 [Compound 1] | – | – | – | – | – | – | -15 | 15 | 39 | > 5000 | 360 | 623 | 367 | 230 | –
COc1ccc(NC(=O)N2CCCC2=O)cc1 [Compound 2, 1-(4-methoxyphenylcarbamoyl)-2-pyrrolidinone] | – | – | – | – | – | – | 11 | 5 | 27 | – | 346 | 557 | 623 | 507 | > 5000
O=C1CCCN1C(=O)Nc1ccc(Cl)cc1 [Compound 3] | – | – | – | – | – | – | 11 | 15 | 46 | > 2000 | – | – | – | – | –
CN(C)c1ccc(NC(=O)N2CCCC2=O)cc1 [Compound 5] | – | – | – | – | – | – | -4 | 22 | 9 | – | 119 | 598 | 213 | 79 | < 5000
COc1ccc(NC(=O)N2CCCC2=O)cc1OC [Compound 6] | – | – | – | – | – | – | 0 | -4 | 14 | > 5000 | – | 138 | 568 | 596 | –
COc1cc(NC(=O)N2CCCC2=O)cc(OC)c1OC [Compound 7] | – | – | – | – | – | – | 4 | 11 | 66 | 5000 | – | -10 | 209 | 345 | –
O=C1CCCN1C(=O)Nc1cccc2c1CCCC2 [Compound 8] | – | – | – | – | – | – | 30 | 25 | 20 | > 5000 | 125 | 531 | 490 | 414 | –
O=C1CCCN1C(=O)Nc1ccncc1 [Compound 9] | – | – | – | – | – | – | 13 | 12 | 16 | – | -7 | 245 | 157 | 41 | < 5000
O=C1CCCN1C(=O)Nc1nccs1 [Compound 10] | – | – | – | – | – | – | -4 | -1 | 35 | 5000 | – | 166 | 144 | 475 | –
O=C1CC(O)CN1C(=O)Nc1ccccc1 (stereo not drawn) [Compound 11, 1-phenylcarbamoyl-4-hydroxy-2-pyrrolidinone] | – | – | – | – | – | – | 11 | 62 | 96 | – | – | 346 | 198 | 518 | –
COc1ccc(NC(=O)N2CC(O)CC2=O)cc1 (stereo not drawn) [Compound 12] | – | – | – | – | – | – | 5 | 7 | 63 | – | – | – | – | – | –
CC1CCN(C(=O)Nc2ccccc2)C1=O (stereo not drawn) [Compound 13] | – | – | – | – | – | – | 9 | 87 | 37 | > 2000 | – | – | – | – | –
COc1ccc(NC(=O)N2CCC(C)C2=O)cc1 (stereo not drawn) [Compound 14, 3-methyl-1-(4-methoxyphenylcarbamoyl)-2-pyrrolidinone] | – | – | – | – | – | – | 9 | 26 | 34 | – | – | 75 | 6 | 1 | > 5000
COc1ccc(NC(=O)N2C(=O)CCC2C)cc1 (stereo not drawn) [Compound 15] | – | – | – | – | – | – | -3 | -1 | 11 | > 5000 | – | 25 | 148 | 672 | –
O=C1CCC(CO)N1C(=O)Nc1ccccc1 (stereo not drawn) [Compound 16, 5-hydroxymethyl-1-phenylcarbamoyl-2-pyrrolidinone] | – | – | – | – | – | – | 10 | 36 | 89 | – | – | 135 | 103 | 50 | 5000
